Among the data in ChEMBL document CHEMBL3632505, “Forsythoneosides A-D, Neuroprotective Phenethanoid and Flavone Glycoside Heterodimers from the Fruits of Forsythia suspensa” (2015) are Activity and viability values, retold here.

Assay [1] has as its system PC-12. Description: Neuroprotective activity against rotenone-induced cell damage in rat PC12 cells assessed as cell viability at 1 uM after 48 hrs by MTT assay (reference value: 53.9 +/- 7.1%). Type of assay: functional. The note with it: for viability at 1 µM: Rattus norvegicus, PC-12, 48 h, read-out: Activity. On the technique in general: Formazan colour is commonly taken as a measure of viable cells.

Assay [2] has as its system PC-12. Description: Neuroprotective activity against rotenone-induced cell damage in rat PC12 cells assessed as cell viability at 10 uM after 48 hrs by MTT assay (reference value: 53.9 +/- 7.1%). The following applies: for viability at 10 µM: Rattus norvegicus, PC-12, 48 h, read-out: Activity. Type of assay: functional.
The subject of assay [3] is PC-12. Description: Neuroprotective activity against rotenone-induced cell damage in rat PC12 cells assessed as cell viability at 0.1 uM after 48 hrs by MTT assay (reference value: 53.9 +/- 7.1%). It is filed as functional. The note with it: for viability at 0.1 µM: Rattus norvegicus, PC-12, 48 h, read-out: Activity.
In assay [4] the test system is PC-12. Description: Neuroprotective activity against rotenone-induced cell damage in rat PC12 cells assessed as increase in cell viability after 48 hrs by MTT assay. It is filed as functional, cell-based.

With `C[C@@H]1O[C@@H](OC[C@H]2O[C@@H](Oc3c(-c4ccc(O)c(O)c4)oc4c(-c5cc(O)c(O)cc5CCO[C@@H]5O[C@H](CO[C@@H]6O[C@@H](C)[C@H](O)[C@@H](O)[C@H]6O)[C@@H](OC(=O)/C=C/c6ccc(O)c(O)c6)[C@H](O)[C@H]5O)c(O)cc(O)c4c3=O)[C@H](O)[C@@H](O)[C@@H]2O)[C@H](O)[C@H](O)[C@H]1O` (stereo in doubt; 4) [listing 1 of 2 here], the Activity with PC-12 [1] is 75.5%; in the assay with PC-12 [3] it was 67.9%. Also, the viability at 10 µM with PC-12 [2] was found to be 96.2%.
As to `C[C@@H]1O[C@@H](OC[C@H]2O[C@@H](Oc3c(-c4ccc(O)c(O)c4)oc4c5c(cc(O)c4c3=O)Oc3cc(O)c(O)cc3[C@@H]5CO[C@@H]3O[C@H](CO[C@@H]4O[C@@H](C)[C@H](O)[C@@H](O)[C@H]4O)[C@@H](OC(=O)/C=C/c4ccc(O)c(O)c4)[C@H](O)[C@H]3O)[C@H](O)[C@@H](O)[C@@H]2O)[C@H](O)[C@H](O)[C@H]1O`, the viability at 1 µM in the assay with PC-12 [1] is 75%. For the same compound, in the assay on PC-12 [2], the viability at 10 µM was found to be 91.2%. The viability at 0.1 µM with PC-12 [3] is 70.1%. Moreover, in the assay on PC-12 [4], the Activity entry is “Dose-dependent effect”.
On to `C[C@@H]1O[C@@H](OC[C@H]2O[C@@H](Oc3c(-c4ccc(O)c(O)c4)oc4cc(O)cc(O)c4c3=O)[C@H](O)[C@@H](O)[C@@H]2O)[C@H](O)[C@H](O)[C@H]1O` [RUTIN], for which the viability at 10 µM in the assay with PC-12 [2] turned out to be 67.9%.
On the same count and under the same terms, the value for `O=C(/C=C/c1ccc(O)c(O)c1)O[C@H]1[C@H](O)[C@@H](O)[C@H](OCCc2ccc(O)c(O)c2)O[C@@H]1CO[C@@H]1OC[C@@H](O)[C@H](O)[C@H]1O` was 56.2%.
With `C[C@@H]1O[C@@H](OC[C@H]2O[C@@H](Oc3c(-c4ccc(O)c(O)c4)oc4c5c(cc(O)c4c3=O)Oc3cc(O)c(O)cc3[C@H]5CO[C@@H]3O[C@H](CO[C@@H]4O[C@@H](C)[C@H](O)[C@@H](O)[C@H]4O)[C@@H](OC(=O)/C=C/c4ccc(O)c(O)c4)[C@H](O)[C@H]3O)[C@H](O)[C@@H](O)[C@@H]2O)[C@H](O)[C@H](O)[C@H]1O`, the viability at 1 µM in the assay with PC-12 [1] was 59.2%. In the assay with PC-12 [2], the viability at 10 µM is 81.1%. Also, the viability at 0.1 µM with PC-12 [3] turned out to be 55.8%. In addition, the Activity entry in the assay with PC-12 [4] was “Dose-dependent effect”.
For `C[C@@H]1O[C@@H](OC[C@H]2O[C@@H](Oc3c(-c4ccc(O)c(O)c4)oc4c(-c5cc(O)c(O)cc5CCO[C@@H]5O[C@H](CO[C@@H]6O[C@@H](C)[C@H](O)[C@@H](O)[C@H]6O)[C@@H](OC(=O)/C=C/c6ccc(O)c(O)c6)[C@H](O)[C@H]5O)c(O)cc(O)c4c3=O)[C@H](O)[C@@H](O)[C@@H]2O)[C@H](O)[C@H](O)[C@H]1O` (stereo in doubt; 3) [listing 1 of 2 here], the viability at 1 µM in the assay on PC-12 [1] turned out to be 64%. Also, the Activity in the assay with PC-12 [2] is listed as 93.2%. For the same compound, the viability at 0.1 µM with PC-12 [3] was found to be 54.3%.
Turning to `C[C@@H]1O[C@@H](OC[C@H]2O[C@@H](Oc3c(-c4ccc(O)c(O)c4)oc4c(-c5cc(O)c(O)cc5CCO[C@@H]5O[C@H](CO[C@@H]6O[C@@H](C)[C@H](O)[C@@H](O)[C@H]6O)[C@@H](OC(=O)/C=C/c6ccc(O)c(O)c6)[C@H](O)[C@H]5O)c(O)cc(O)c4c3=O)[C@H](O)[C@@H](O)[C@@H]2O)[C@H](O)[C@H](O)[C@H]1O` (stereo in doubt; 3) [listing 2 of 2 here], the Activity entry in the assay with PC-12 [4] was “Dose-dependent effect”.
On the same count and under the same terms, the same measure for `C[C@@H]1O[C@@H](OC[C@H]2O[C@@H](Oc3c(-c4ccc(O)c(O)c4)oc4c(-c5cc(O)c(O)cc5CCO[C@@H]5O[C@H](CO[C@@H]6O[C@@H](C)[C@H](O)[C@@H](O)[C@H]6O)[C@@H](OC(=O)/C=C/c6ccc(O)c(O)c6)[C@H](O)[C@H]5O)c(O)cc(O)c4c3=O)[C@H](O)[C@@H](O)[C@@H]2O)[C@H](O)[C@H](O)[C@H]1O` (stereo in doubt; 4) [listing 2 of 2 here]: “Dose-dependent effect”.
As for `COC1=C(OC)C(=O)C(C/C=C(\C)CC/C=C(\C)CC/C=C(\C)CC/C=C(\C)CC/C=C(\C)CC/C=C(\C)CC/C=C(\C)CC/C=C(\C)CC/C=C(\C)CCC=C(C)C)=C(C)C1=O` [UBIDECARENONE], the viability at 10 µM in the assay on PC-12 [2] is 59%.
Same read-out and setting: the value for `C[C@@H]1O[C@@H](OC[C@H]2O[C@@H](OCCc3ccc(O)c(O)c3)[C@H](O)[C@@H](O)[C@@H]2OC(=O)/C=C/c2ccc(O)c(O)c2)[C@H](O)[C@H](O)[C@H]1O` [FORSYTHIASIDE] was 60.4%.
